Source: ChEMBL document CHEMBL1201862, “PubChem BioAssay data set” (2004)
Where “and” joins values, the source holds several entries; their conditions need not be identical. Equal values may be shown once.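 96-well plates; 48 h exposure; 5 concentrations. Endpoints by linear interpolation between flanking doses. Not reached: highest tested concentration assigned. Abbreviation: GI50, concentration required for 50% inhibition of growth.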 Calls of active or inactive are those of the source. Cut-off read from the data, not from the text of the source: active = GI50 up to about 1.1 µM and inactive = higher.

Tests used:
Test in all cases: DTP human tumour cell line panel, 48 h
MDA-N = test system: MDA-N
MOLT-4 = test system: MOLT-4
NCI-H23 = test system: NCI-H23
KM12 = test system: KM12
Malme-3M = test system: Malme-3M
SF-268 = test system: SF-268
MDA-MB-231 = test system: MDA-MB-231
HCT-15 = test system: HCT-15
EKVX = test system: EKVX
UACC-257 = test system: UACC-257
MDA-MB-435 = test system: MDA-MB-435
OVCAR-4 = test system: OVCAR-4
A549 = test system: A549
HL-60 = test system: HL-60
NCI-H226 = test system: NCI-H226
K562 = test system: K562
NCI/ADR-RES = test system: NCI/ADR-RES
OVCAR-8 = test system: OVCAR-8
IGROV-1 = test system: IGROV-1
BT-549 = test system: BT-549

SMILES	GI50 (MDA-N)	GI50 (MOLT-4)	GI50 (NCI-H23)	GI50 (KM12)	GI50 (Malme-3M)	GI50 (SF-268)	GI50 (MDA-MB-231)	GI50 (HCT-15) [µM]	GI50 (EKVX)	GI50 (UACC-257)	GI50 (MDA-MB-435)	GI50 (OVCAR-4)	GI50 (A549)	GI50 (HL-60)	GI50 (NCI-H226)	GI50 (K562)	GI50 (NCI/ADR-RES)	GI50 (OVCAR-8)	GI50 (IGROV-1)	GI50 (BT-549)
O=C1CSC(c2cccc(Cl)c2)N1c1c(O)c(Cl)cc(Br)c1Cl (centres undefined)	17.1 µM (inactive)	23.6 µM (inactive)	27.7 µM (inactive)	34 µM (inactive)	> 100 µM (inactive)	57.8 µM (inactive)	14 µM (inactive)	15	> 100 µM (inactive)	22.4 µM (inactive)	17.1 µM (inactive)	14.9 µM (inactive)	53.3 µM (inactive)	25.8 µM (inactive)	30.2 µM (inactive)	45.2 µM (inactive)	71 µM (inactive)	–	–	–
CC[N+](C)(CC)CCN1C(=O)c2ccccc2S1(=O)=O	–	39.8 µM (inactive)	> 100 µM (inactive)	> 100 µM (inactive)	> 100 µM (inactive)	> 100 µM (inactive)	> 100 µM (inactive)	> 100	> 100 µM (inactive)	> 100 µM (inactive)	> 100 µM (inactive)	> 100 µM (inactive)	> 100 µM (inactive)	> 100 µM (inactive)	> 100 µM (inactive)	–	> 100 µM (inactive)	> 100 µM (inactive)	> 100 µM (inactive)	> 100 µM (inactive)
CC(C)(C)C(=O)C(Cc1ccccc1)C(=O)C(C)(C)C	> 100 µM (inactive)	50.7 µM (inactive)	> 100 µM (inactive)	> 100 µM (inactive)	> 100 µM (inactive)	> 100 µM (inactive)	> 100 µM (inactive)	> 100	> 100 µM (inactive)	> 100 µM (inactive)	–	66.1 µM (inactive)	> 100 µM (inactive)	30.5 µM (inactive)	> 100 µM (inactive)	55 µM (inactive)	51.6 µM (inactive)	> 100 µM (inactive)	> 100 µM (inactive)	–
Cc1c(C(=O)O)sc2nc[nH]c(=O)c12	–	> 100 µM (inactive)	> 100 µM (inactive)	> 100 µM (inactive)	> 100 µM (inactive)	> 100 µM (inactive)	> 100 µM (inactive)	> 100	53.8 µM (inactive)	> 100 µM (inactive)	> 100 µM (inactive)	> 100 µM (inactive)	> 100 µM (inactive)	> 100 µM (inactive)	25.1 µM (inactive)	> 100 µM (inactive)	> 100 µM (inactive)	> 100 µM (inactive)	84.1 µM (inactive)	–
C(CCCCc1nnc(N2CCCCC2)o1)CCCc1nnc(N2CCCCC2)o1	–	> 100 µM (inactive)	> 100 µM (inactive)	> 100 µM (inactive)	> 100 µM (inactive)	> 100 µM (inactive)	> 100 µM (inactive)	> 100	> 100 µM (inactive)	> 100 µM (inactive)	> 100 µM (inactive)	> 100 µM (inactive)	> 100 µM (inactive)	> 100 µM (inactive)	> 100 µM (inactive)	> 100 µM (inactive)	> 100 µM (inactive)	> 100 µM (inactive)	> 100 µM (inactive)	> 100 µM (inactive)
CC(CO)C1=CC(C#CCOCc2ccccc2)N(C(=O)Oc2ccccc2)c2ccccc21 (centres undefined)	21.3 µM (inactive)	4.63 µM (inactive)	8.89 µM (inactive)	14.9 µM (inactive)	–	24.9 µM (inactive)	39.6 µM (inactive)	5.04	10.3 µM (inactive)	13.2 µM (inactive)	15.5 µM (inactive)	3.48 µM (inactive)	9.98 µM (inactive)	26.3 µM (inactive)	40.7 µM (inactive)	8.26 µM (inactive)	8.89 µM (inactive)	30.5 µM (inactive)	28.2 µM (inactive)	–
COc1ccc(-c2[nH]c(=O)n(C3OC(CO)C(O)C(O)C3O)c(=O)c2C#N)cc1 (centres undefined)	–	> 100 µM (inactive)	> 100 µM (inactive)	> 100 µM (inactive)	–	> 100 µM (inactive)	> 100 µM (inactive) and 81.5 µM (inactive)	> 100	> 100 µM (inactive)	> 100 µM (inactive)	> 100 µM (inactive)	> 100 µM (inactive)	> 100 µM (inactive)	–	> 100 µM (inactive)	> 100 µM (inactive)	> 100 µM (inactive)	> 100 µM (inactive)	> 100 µM (inactive) and 86.1 µM (inactive)	> 100 µM (inactive)
CCN(CC)CC1CCCCN1CC(=O)N1c2ccccc2NC(=O)c2ccccc21 (centres undefined)	> 100 µM (inactive)	> 100 µM (inactive)	> 100 µM (inactive)	> 100 µM (inactive)	> 100 µM (inactive)	> 100 µM (inactive)	> 100 µM (inactive)	> 100	> 100 µM (inactive)	> 100 µM (inactive)	> 100 µM (inactive)	> 100 µM (inactive)	> 100 µM (inactive)	> 100 µM (inactive)	> 100 µM (inactive)	79.3 µM (inactive)	> 100 µM (inactive)	> 100 µM (inactive)	> 100 µM (inactive)	–
CC(C)(CCCCC(C)(C)[N+](C)(C)C)[N+](C)(C)C	> 100 µM (inactive)	> 100 µM (inactive)	–	–	–	> 100 µM (inactive)	> 100 µM (inactive)	> 100	> 100 µM (inactive)	> 100 µM (inactive)	> 100 µM (inactive)	> 100 µM (inactive)	> 100 µM (inactive)	> 100 µM (inactive)	–	> 100 µM (inactive)	> 100 µM (inactive)	> 100 µM (inactive)	> 100 µM (inactive)	–
CCOC(=O)C(=CNC(=S)Nc1c(CC)cccc1CC)C(=O)OCC	> 100 µM (inactive)	> 100 µM (inactive)	> 100 µM (inactive)	> 100 µM (inactive)	> 100 µM (inactive)	> 100 µM (inactive)	> 100 µM (inactive)	–	> 100 µM (inactive)	> 100 µM (inactive)	> 100 µM (inactive)	> 100 µM (inactive)	> 100 µM (inactive)	> 100 µM (inactive)	> 100 µM (inactive)	> 100 µM (inactive)	> 100 µM (inactive)	> 100 µM (inactive)	> 100 µM (inactive)	–
OC(CC(O)(C(F)(F)F)C(F)(F)F)c1ccc(C(O)CC(O)(C(F)(F)F)C(F)(F)F)cc1 (centres undefined)	19.5 µM (inactive)	16.3 µM (inactive)	12.9 µM (inactive)	–	14.2 µM (inactive)	14.9 µM (inactive)	14.3 µM (inactive)	20.1	14.7 µM (inactive)	18.1 µM (inactive)	18.2 µM (inactive)	15.7 µM (inactive)	14.4 µM (inactive)	17.1 µM (inactive)	–	15.9 µM (inactive)	14.6 µM (inactive)	15.9 µM (inactive)	10.9 µM (inactive)	–
